As a reminder, the DC50 is the midpoint of the concentration-degradation curve.

We go through 7 compounds from patent US20260053932A1, “COMPOUNDS AND METHODS FOR THE TARGETED DEGRADATION OF ANDROGEN RECEPTOR AND ASSOCIATED METHODS OF USE” (Arvinas Operations, Inc., priority 2020, published 2026).

The subject of the test is androgen receptor (AR) in LNCaP and/or VCaP cells. Description: Androgen Receptor ELISA assay (AR degradation). Format: cell-based. As to conditions: LNCaP and/or VCaP cells; 5 hours incubation; media with R1881; read-out: DC50 Code* (degradation of AR ELISA). An outline of the steps:
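VCaP cells grown ≥3 days, then treated 5 h with compound in media containing 1 nM R1881 (10× stock). Cells lysed and AR quantified by sandwich ELISA (mouse AR detection Ab, HRP anti-mouse, TMB). DC50 and Dmax derived from AR degradation.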
A general note: An ELISA detects its analyte on a solid surface through an enzyme-linked reagent.

As for `COc1cc(O[C@H]2C[C@H](N(CC3CCN(c4ncc(C(=O)NC5CC6CC(Oc7cc(C)c(C#N)c(C)c7)CC6C5)cn4)CC3)C(C)C)C2)cc2c1C(=O)N(C1CCC(=O)NC1=O)C2=O` (stereo partly shown) [Compound 2, N-(5-(4-cyano-3,5-dimethylphenoxy)octahydropentalen-2-yl)-2-(4-((((1r,3r)-3-((2-(2,6-dioxopiperidin-3-yl)-7-methoxy-1,3-dioxoisoindolin-5-yl)oxy)cyclobutyl) (isopropyl)amino)methyl)piperidin-1-yl)pyrimidine-5-carboxamide], the DC50 is above 100 nM.
Under `COc1cc(O[C@H]2C[C@H](N(CC3CCN(c4ncc(C(=O)NC5CC6CN(Cc7cc(C)c(C#N)c(C)c7)CC6C5)cn4)CC3)C(C)C)C2)cc2c1C(=O)N(C1CCC(=O)NC1=O)C2=O` (stereo partly shown) [Compound 3, N-(2-(4-cyano-3,5-dimethylbenzyl)octahydrocyclopenta [c]pyrrol-5-yl)-2-(4-((((1r,3r)-3-((2-(2,6-dioxopiperidin-3-yl)-7-methoxy-1,3-dioxoisoindolin-5-yl)oxy)cyclobutyl) (isopropyl)amino)methyl)piperidin-1-yl)pyrimidine-5-carboxamide] stands above 100 nM.
Take `COc1cc(O[C@H]2C[C@H](N(CC3CCN(c4ncc(C(=O)N[C@@H]5CC[C@H](Oc6cc(C)c(C#N)c(C)c6)C5)cn4)CC3)C(C)C)C2)cc2c1C(=O)N(C1CCC(=O)NC1=O)C2=O` (stereo partly drawn) [Compound 4, N-((1R,3S)-3-(4-cyano-3,5-dimethylphenoxy)cyclopentyl)-2-(4-((((1r,3R)-3-((2-(2,6-dioxopiperidin-3-yl)-7-methoxy-1,3-dioxoisoindolin-5-yl)oxy)cyclobutyl) (isopropyl)amino)methyl)piperidin-1-yl)pyrimidine-5-carboxamide]: the DC50 was above 100 nM.
Under `COc1cc(O[C@H]2C[C@H](N(CC3CCN(c4ncc(C(=O)N[C@H]5CC[C@H](Oc6cc(C)c(C#N)c(C)c6)C5)cn4)CC3)C(C)C)C2)cc2c1C(=O)N(C1CCC(=O)NC1=O)C2=O` (stereo partly drawn) [Compound 5, N-((1S,3S)-3-(4-cyano-3,5-dimethylphenoxy)cyclopentyl)-2-(4-((((1r,3S)-3-((2-(2,6-dioxopiperidin-3-yl)-7-methoxy-1,3-dioxoisoindolin-5-yl)oxy)cyclobutyl) (isopropyl)amino)methyl)piperidin-1-yl)pyrimidine-5-carboxamide] stands above 100 nM.
Consider `COc1cc(O[C@H]2CC[C@@H](NC(=O)c3cnc(N4CCC(CN(C(C)C)[C@H]5C[C@H](Oc6ccc7c(c6)C(=O)N(C6CCC(=O)NC6=O)C7=O)C5)CC4)cn3)C2)ccc1C#N` (stereo partly drawn) [Compound 6, N-((1R,3S)-3-(4-cyano-3-methoxyphenoxy)cyclopentyl)-5-(4-((((1r,3R)-3-((2-(2,6-dioxopiperidin-3-yl)-1,3-dioxoisoindolin-5-yl)oxy)cyclobutyl) (isopropyl)amino)methyl)piperidin-1-yl)pyrazine-2-carboxamide], for which the DC50 was above 100 nM.
Under `COc1cc(O[C@H]2CC[C@H](NC(=O)c3cnc(N4CCC(CN(C(C)C)[C@H]5C[C@H](Oc6ccc7c(c6)C(=O)N(C6CCC(=O)NC6=O)C7=O)C5)CC4)cn3)C2)ccc1C#N` (stereo partly drawn) [Compound 7, N-((1S,3S)-3-(4-cyano-3-methoxyphenoxy)cyclopentyl)-5-(4-((((1r,3S)-3-((2-(2,6-dioxopiperidin-3-yl)-1,3-dioxoisoindolin-5-yl)oxy)cyclobutyl) (isopropyl)amino)methyl)piperidin-1-yl)pyrazine-2-carboxamide] stands above 100 nM; under `COc1cc(O[C@H]2C[C@H](N(CC3CCN(c4ncc(C(=O)N[C@@H]5CC[C@@H](Oc6cc(C)c(C#N)c(C)c6)C5)cn4)CC3)C(C)C)C2)cc2c1C(=O)N(C1CCC(=O)NC1=O)C2=O` (stereo partly drawn) [Compound 8, N-((1R,3R)-3-(4-cyano-3,5-dimethylphenoxy)cyclopentyl)-2-(4-((((1r,3R)-3-((2-(2,6-dioxopiperidin-3-yl)-7-methoxy-1,3-dioxoisoindolin-5-yl)oxy)cyclobutyl) (isopropyl)amino)methyl)piperidin-1-yl)pyrimidine-5-carboxamide], above 100 nM.
